These are literature values, as cited in Sander's compilation of Henry's law constants (doi:10.1016/j.chroma.2007.11.025).

This data set can be described thus: Henry solubility constant Hcp at 298.15 K (mol/(m3 Pa)). The note with it: reference: Sieg et al. (2008); cited value.

Take `ClCCBr` [1-chloro-2-bromoethane]: the “Henry solubility constant Hcp” value is 0.011.
Consider `Cc1ccccc1` [methylbenzene], for which the “Henry solubility constant Hcp” value was 0.0015.
As for `c1ccccc1` [benzene], the “Henry solubility constant Hcp” value is 0.0018.
For the compound `CCCCCCCCCC=O` [decanal], the “Henry solubility constant Hcp” value was 0.0055.
For `Cc1cccc(C)c1` [1,3-dimethylbenzene], the “Henry solubility constant Hcp” value is 0.0014.
Consider `Cc1ccc(C)cc1` [1,4-dimethylbenzene], for which the “Henry solubility constant Hcp” value was 0.0014.
Regarding `CCCCCCCC=O` [octanal], the “Henry solubility constant Hcp” value is 0.019.
For `Cc1ccccc1C` [1,2-dimethylbenzene], the “Henry solubility constant Hcp” value was 0.0019.
Take `Fc1ccccc1` [fluorobenzene]: the “Henry solubility constant Hcp” value is 0.0016.
As to `CCCCCCC=O` [heptanal], the “Henry solubility constant Hcp” value is 0.037.
`CCc1ccccc1` [ethylbenzene]: the “Henry solubility constant Hcp” value was 0.0013.
Consider `CCCCCCCCC=O` [nonanal], for which the “Henry solubility constant Hcp” value was 0.014.
